Assay results as given in article PMC9856672, “SGC-CAMKK2-1: A Chemical Probe for CAMKK2” (Cells, 2023).

Key:
TTK = target: T1, TTK (Homo sapiens, UniProt P33981); assay: KINOMEscan at 1 μM, TTK; format: binding; details: 1000 nM, read-out: Percent Control
T1 construct: purchased Eurofins DiscoverX KINOMEscan
From the text: (§1) Supplement cells-12-00287-s001.zip/File S2. KinomeScan data for the CAMKK2 probe and negative control.xlsx, sheet "SGC-CAMKK2-1N" | column: Percent Control

CDC2L5 = target: T2, CDC2L5 (Homo sapiens, UniProt Q14004); assay: KINOMEscan at 1 μM, CDC2L5; format: binding; details: 1000 nM, read-out: Percent Control
T2 construct: purchased Eurofins DiscoverX KINOMEscan
From the text: as §1

PIK3CA(E545A) = target: T3, PIK3CA(E545A) (Homo sapiens, UniProt P42336, E545A); assay: KINOMEscan at 1 μM, PIK3CA(E545A); format: binding; details: 1000 nM, read-out: Percent Control
T3 construct: purchased Eurofins DiscoverX KINOMEscan
From the text: as §1

CAMK1D [1] = target: T4, CAMK1D (Homo sapiens, UniProt Q8IU85); assay: KINOMEscan at 1 μM, CAMK1D; format: binding; details: 1000 nM, read-out: Percent Control
T4 construct: purchased Eurofins DiscoverX KINOMEscan
T4 sequence (Q8IU85 whole entry): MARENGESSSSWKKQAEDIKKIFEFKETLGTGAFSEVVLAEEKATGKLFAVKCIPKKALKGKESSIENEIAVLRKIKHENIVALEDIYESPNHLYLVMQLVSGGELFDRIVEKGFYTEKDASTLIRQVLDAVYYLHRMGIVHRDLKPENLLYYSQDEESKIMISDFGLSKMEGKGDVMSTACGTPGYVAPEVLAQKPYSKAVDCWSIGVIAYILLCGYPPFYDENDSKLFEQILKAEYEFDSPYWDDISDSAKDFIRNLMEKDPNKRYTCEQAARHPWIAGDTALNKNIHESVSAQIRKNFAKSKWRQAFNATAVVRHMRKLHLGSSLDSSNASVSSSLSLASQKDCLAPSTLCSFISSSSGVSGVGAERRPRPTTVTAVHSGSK
From the text: as §1

ABL1-nonphosphorylated = target: T5, ABL1-nonphosphorylated (Homo sapiens, UniProt P00519); assay: KINOMEscan at 1 μM, ABL1-nonphosphorylated; format: binding; details: 1000 nM, read-out: Percent Control
T5 construct: purchased Eurofins DiscoverX KINOMEscan
From the text: as §1

MAP3K1 = target: T6, MAP3K1 (Homo sapiens, UniProt Q13233); assay: KINOMEscan at 1 μM, MAP3K1; format: binding; details: 1000 nM, read-out: Percent Control
T6 construct: purchased Eurofins DiscoverX KINOMEscan
From the text: as §1

MKK7 [2] = target: T7, MKK7 (Homo sapiens, UniProt O14733); assay: KINOMEscan at 1 μM, MKK7; format: binding; details: 1000 nM, read-out: Percent Control
T7 construct: purchased Eurofins DiscoverX KINOMEscan
T7 sequence (O14733 whole entry): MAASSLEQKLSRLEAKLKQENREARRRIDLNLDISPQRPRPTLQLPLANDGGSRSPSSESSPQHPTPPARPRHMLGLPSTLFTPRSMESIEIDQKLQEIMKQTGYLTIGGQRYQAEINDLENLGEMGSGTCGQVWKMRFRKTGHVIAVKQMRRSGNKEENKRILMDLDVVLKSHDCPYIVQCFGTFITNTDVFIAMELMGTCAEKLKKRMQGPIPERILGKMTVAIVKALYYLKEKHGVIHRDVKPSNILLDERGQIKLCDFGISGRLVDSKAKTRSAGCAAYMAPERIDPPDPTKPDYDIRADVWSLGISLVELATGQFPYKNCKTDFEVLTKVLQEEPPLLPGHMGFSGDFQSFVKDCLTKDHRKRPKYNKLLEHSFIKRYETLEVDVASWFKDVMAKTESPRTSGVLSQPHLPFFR
From the text: as §1

RIOK1 = target: T8, RIOK1 (Homo sapiens, UniProt Q9BRS2); assay: KINOMEscan at 1 μM, RIOK1; format: binding; details: 1000 nM, read-out: Percent Control
T8 construct: purchased Eurofins DiscoverX KINOMEscan
From the text: as §1

BMPR1A = target: T9, BMPR1A (Homo sapiens, UniProt P36894); assay: KINOMEscan at 1 μM, BMPR1A; format: binding; details: 1000 nM, read-out: Percent Control
T9 construct: purchased Eurofins DiscoverX KINOMEscan
From the text: as §1

DRAK1 = target: T10, DRAK1 (Homo sapiens, UniProt Q9UEE5); assay: KINOMEscan at 1 μM, DRAK1; format: binding; details: 1000 nM, read-out: Percent Control
T10 construct: purchased Eurofins DiscoverX KINOMEscan
T10 sequence (Q9UEE5 whole entry): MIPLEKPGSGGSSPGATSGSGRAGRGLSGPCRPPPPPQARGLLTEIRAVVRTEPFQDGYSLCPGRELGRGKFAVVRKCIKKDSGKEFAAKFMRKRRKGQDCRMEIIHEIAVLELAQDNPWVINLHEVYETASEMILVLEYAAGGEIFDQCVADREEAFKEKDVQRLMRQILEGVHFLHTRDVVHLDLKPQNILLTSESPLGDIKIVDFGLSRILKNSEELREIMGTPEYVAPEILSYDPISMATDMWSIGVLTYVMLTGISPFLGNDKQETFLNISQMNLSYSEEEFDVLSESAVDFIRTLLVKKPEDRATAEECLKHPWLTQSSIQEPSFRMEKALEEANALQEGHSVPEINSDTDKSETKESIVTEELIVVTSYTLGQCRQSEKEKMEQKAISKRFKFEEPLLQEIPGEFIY
From the text: as §1

AXL = target: T11, AXL (Homo sapiens, UniProt P30530); assay: KINOMEscan at 1 μM, AXL; format: binding; details: 1000 nM, read-out: Percent Control
T11 construct: purchased Eurofins DiscoverX KINOMEscan
From the text: as §1

AMPK-alpha2 = target: T12, AMPK-alpha2 (Homo sapiens, UniProt P54646); assay: KINOMEscan at 1 μM, AMPK-alpha2; format: binding; details: 1000 nM, read-out: Percent Control
T12 construct: purchased Eurofins DiscoverX KINOMEscan
T12 sequence (P54646 whole entry): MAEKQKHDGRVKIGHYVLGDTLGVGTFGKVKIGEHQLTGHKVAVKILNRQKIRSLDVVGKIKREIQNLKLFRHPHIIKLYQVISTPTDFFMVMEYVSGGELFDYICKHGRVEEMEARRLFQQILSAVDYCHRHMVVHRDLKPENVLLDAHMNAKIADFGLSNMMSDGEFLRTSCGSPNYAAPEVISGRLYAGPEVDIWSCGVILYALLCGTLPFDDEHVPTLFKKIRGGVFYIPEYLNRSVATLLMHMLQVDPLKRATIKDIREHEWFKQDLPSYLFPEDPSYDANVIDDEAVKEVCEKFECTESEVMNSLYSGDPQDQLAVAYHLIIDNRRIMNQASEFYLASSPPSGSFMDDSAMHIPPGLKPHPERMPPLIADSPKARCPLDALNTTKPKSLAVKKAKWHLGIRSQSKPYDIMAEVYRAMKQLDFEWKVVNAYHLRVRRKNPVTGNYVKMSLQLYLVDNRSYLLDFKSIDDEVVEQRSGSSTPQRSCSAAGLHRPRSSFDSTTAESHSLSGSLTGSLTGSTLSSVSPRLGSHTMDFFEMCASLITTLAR
From the text: as §1

EGFR(E746-A750del) = target: T13, EGFR(E746-A750del) (Homo sapiens, UniProt P00533, DEL746-750); assay: KINOMEscan at 1 μM, EGFR(E746-A750del); format: binding; details: 1000 nM, read-out: Percent Control
T13 construct: purchased Eurofins DiscoverX KINOMEscan
From the text: as §1

FRK = target: T14, FRK (Homo sapiens, UniProt P42685); assay: KINOMEscan binding assay at 1 μM, FRK; details: Compound Concentration 1000 nM; read-out: Percent Control
T14 construct: purchased Eurofins DiscoverX KINOMEscan
T14 sequence (P42685 whole entry): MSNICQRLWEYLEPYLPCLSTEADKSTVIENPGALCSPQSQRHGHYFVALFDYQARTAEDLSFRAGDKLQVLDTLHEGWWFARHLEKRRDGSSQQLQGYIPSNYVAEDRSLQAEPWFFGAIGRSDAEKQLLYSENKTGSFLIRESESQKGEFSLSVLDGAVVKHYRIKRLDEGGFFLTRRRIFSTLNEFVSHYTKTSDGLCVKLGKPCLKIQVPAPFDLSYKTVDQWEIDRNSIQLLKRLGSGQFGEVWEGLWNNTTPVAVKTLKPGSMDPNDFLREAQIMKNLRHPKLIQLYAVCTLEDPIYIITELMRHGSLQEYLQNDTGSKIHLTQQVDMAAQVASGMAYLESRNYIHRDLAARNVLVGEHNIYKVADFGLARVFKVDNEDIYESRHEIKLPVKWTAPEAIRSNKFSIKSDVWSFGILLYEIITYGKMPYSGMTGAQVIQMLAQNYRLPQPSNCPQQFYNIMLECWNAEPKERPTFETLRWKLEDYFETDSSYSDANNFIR
From the text: as §1

GSK3A = target: T15, GSK3A (Homo sapiens, UniProt P49840); assay: KINOMEscan binding assay at 1 μM, GSK3A; details: Compound Concentration 1000 nM; read-out: Percent Control
T15 construct: purchased Eurofins DiscoverX KINOMEscan
From the text: as §1

LIMK2 = target: T16, LIMK2 (Homo sapiens, UniProt P53671); assay: KINOMEscan 1 μM, LIMK2; format: binding; details: 1000 nM; Entrez LIMK2; read-out: Percent Control
T16 construct: purchased Eurofins DiscoverX KINOMEscan
From the text: (§2) Supplement cells-12-00287-s001.zip/File S2. KinomeScan data for the CAMKK2 probe and negative control.xlsx, sheet "SGC-CAMKK2-1" | column: Percent Control

EGFR(S752-I759del) = target: T17, EGFR(S752-I759del) (Homo sapiens, UniProt P00533, DEL752-759); assay: KINOMEscan 1 μM, EGFR(S752-I759del); format: binding; details: 1000 nM; Entrez EGFR; read-out: Percent Control
T17 construct: purchased Eurofins DiscoverX KINOMEscan
T17 sequence (P00533 with tags, fused parts or gaps DEL752-759 limits assumed): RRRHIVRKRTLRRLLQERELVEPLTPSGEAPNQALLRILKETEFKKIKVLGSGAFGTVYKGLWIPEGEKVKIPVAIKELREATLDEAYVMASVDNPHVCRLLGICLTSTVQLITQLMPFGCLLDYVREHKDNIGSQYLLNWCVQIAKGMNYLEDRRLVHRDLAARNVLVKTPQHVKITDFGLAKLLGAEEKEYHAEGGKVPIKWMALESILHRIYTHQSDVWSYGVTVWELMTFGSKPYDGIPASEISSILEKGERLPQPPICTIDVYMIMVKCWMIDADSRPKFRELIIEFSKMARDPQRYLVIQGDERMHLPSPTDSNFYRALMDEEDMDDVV
From the text: as §2

FGFR2 = target: T18, FGFR2 (Homo sapiens, UniProt P21802); assay: KINOMEscan 1 μM, FGFR2; format: binding; details: 1000 nM; Entrez FGFR2; read-out: Percent Control
T18 construct: purchased Eurofins DiscoverX KINOMEscan
T18 sequence (P21802 22-821): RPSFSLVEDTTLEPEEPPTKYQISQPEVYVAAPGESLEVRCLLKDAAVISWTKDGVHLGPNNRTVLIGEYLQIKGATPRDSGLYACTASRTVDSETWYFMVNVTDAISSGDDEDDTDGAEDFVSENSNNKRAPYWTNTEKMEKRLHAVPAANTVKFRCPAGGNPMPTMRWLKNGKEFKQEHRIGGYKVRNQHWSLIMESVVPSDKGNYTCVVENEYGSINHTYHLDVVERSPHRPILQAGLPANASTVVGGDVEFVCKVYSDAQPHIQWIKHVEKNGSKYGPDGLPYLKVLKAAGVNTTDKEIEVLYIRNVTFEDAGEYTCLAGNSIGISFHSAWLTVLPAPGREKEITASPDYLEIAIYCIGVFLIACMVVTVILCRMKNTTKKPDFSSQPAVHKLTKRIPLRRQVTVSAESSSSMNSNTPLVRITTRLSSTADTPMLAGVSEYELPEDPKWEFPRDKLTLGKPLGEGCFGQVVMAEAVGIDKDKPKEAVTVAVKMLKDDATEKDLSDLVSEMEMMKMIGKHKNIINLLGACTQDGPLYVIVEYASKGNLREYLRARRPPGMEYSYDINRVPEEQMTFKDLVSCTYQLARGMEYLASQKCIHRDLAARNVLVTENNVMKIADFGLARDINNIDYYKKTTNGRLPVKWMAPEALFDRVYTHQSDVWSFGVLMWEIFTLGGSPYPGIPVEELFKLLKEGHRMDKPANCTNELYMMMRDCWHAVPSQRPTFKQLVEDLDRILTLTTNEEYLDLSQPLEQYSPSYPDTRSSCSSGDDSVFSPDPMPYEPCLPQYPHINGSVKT
From the text: as §2

STK36 = target: T19, STK36 (Homo sapiens, UniProt Q9NRP7); assay: KINOMEscan 1 μM, STK36; format: binding; details: 1000 nM; Entrez STK36; read-out: Percent Control
T19 construct: purchased Eurofins DiscoverX KINOMEscan
From the text: as §2

PKNB(M.tuberculosis) = target: T20, PKNB(M.tuberculosis) (Mycobacterium tuberculosis, UniProt P9WI81); assay: KINOMEscan 1 μM, PKNB(M.tuberculosis); format: binding; details: 1000 nM; Entrez pknB; read-out: Percent Control
T20 construct: purchased Eurofins DiscoverX KINOMEscan
From the text: as §2

CAMK1D [3] = target: T4, CAMK1D; assay: KINOMEscan 1 μM, CAMK1D; format: binding; details: 1000 nM; Entrez CAMK1D; read-out: Percent Control
From the text: as §2

TBK1 = target: T21, TBK1 (Homo sapiens, UniProt Q9UHD2); assay: KINOMEscan 1 μM, TBK1; format: binding; details: 1000 nM; Entrez TBK1; read-out: Percent Control
T21 construct: purchased Eurofins DiscoverX KINOMEscan
T21 sequence (Q9UHD2 whole entry): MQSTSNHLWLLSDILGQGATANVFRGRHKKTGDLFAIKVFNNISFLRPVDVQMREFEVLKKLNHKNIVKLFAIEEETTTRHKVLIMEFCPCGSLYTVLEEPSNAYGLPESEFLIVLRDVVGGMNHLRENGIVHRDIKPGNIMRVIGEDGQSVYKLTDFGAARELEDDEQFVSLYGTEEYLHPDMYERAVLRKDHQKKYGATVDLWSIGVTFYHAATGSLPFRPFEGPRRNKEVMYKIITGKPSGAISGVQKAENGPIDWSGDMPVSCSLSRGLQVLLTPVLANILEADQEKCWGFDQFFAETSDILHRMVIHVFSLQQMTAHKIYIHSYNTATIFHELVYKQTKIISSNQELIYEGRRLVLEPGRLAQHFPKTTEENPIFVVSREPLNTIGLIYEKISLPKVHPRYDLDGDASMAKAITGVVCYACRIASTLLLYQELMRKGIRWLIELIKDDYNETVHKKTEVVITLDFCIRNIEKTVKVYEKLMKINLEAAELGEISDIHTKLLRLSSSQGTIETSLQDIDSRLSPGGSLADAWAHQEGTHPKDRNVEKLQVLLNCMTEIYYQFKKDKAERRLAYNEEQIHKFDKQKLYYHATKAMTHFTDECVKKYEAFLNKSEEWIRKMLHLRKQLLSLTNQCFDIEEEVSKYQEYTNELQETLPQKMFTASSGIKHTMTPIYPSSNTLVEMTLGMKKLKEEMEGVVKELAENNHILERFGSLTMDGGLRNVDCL
From the text: as §2

FGFR3 = target: T22, FGFR3 (Homo sapiens, UniProt P22607); assay: KINOMEscan 1 μM, FGFR3; format: binding; details: 1000 nM; Entrez FGFR3; read-out: Percent Control
T22 construct: purchased Eurofins DiscoverX KINOMEscan
From the text: as §2

TAOK3 = target: T23, TAOK3 (Homo sapiens, UniProt Q9H2K8); assay: KINOMEscan 1 μM, TAOK3; format: binding; details: 1000 nM; Entrez TAOK3; read-out: Percent Control
T23 construct: purchased Eurofins DiscoverX KINOMEscan
From the text: as §2

[4] = target: T24, ABL1(T315I)-nonphosphorylated (Homo sapiens, UniProt P00519, T315I); assay: KINOMEscan 1 μM, ABL1(T315I)-nonphosphorylated; format: binding; details: 1000 nM; Entrez ABL1; read-out: Percent Control
T24 construct: purchased Eurofins DiscoverX KINOMEscan
From the text: as §2

BMPR1B = target: T25, BMPR1B (Homo sapiens, UniProt O00238); assay: KINOMEscan 1 μM, BMPR1B; format: binding; details: 1000 nM; Entrez BMPR1B; read-out: Percent Control
T25 construct: purchased Eurofins DiscoverX KINOMEscan
From the text: as §2

CIT = target: T26, CIT (Homo sapiens, UniProt O14578); assay: KINOMEscan 1 μM, CIT; format: binding; details: 1000 nM; Entrez CIT; read-out: Percent Control
T26 construct: purchased Eurofins DiscoverX KINOMEscan
From the text: as §2

MKK7 [5] = target: T7, MKK7; assay: KINOMEscan 1 μM, MKK7; format: binding; details: 1000 nM; Entrez MAP2K7; read-out: Percent Control
From the text: as §2

PLK4 = target: T27, PLK4 (Homo sapiens, UniProt O00444); assay: DiscoverX KINOMEscan binding assay at 1 μM, PLK4; details: Compound Concentration 1000 nM, read-out: Percent Control
T27 construct: purchased Eurofins DiscoverX KINOMEscan
From the text: as §2

[6] = target: T28, RSK2(Kin.Dom.2-C-terminal) (Homo sapiens, UniProt P51812); assay: DiscoverX KINOMEscan binding assay at 1 μM, RSK2(Kin.Dom.2-C-terminal); details: RSK2(Kin.Dom.2-C-terminal) (RPS6KA3); Compound Concentration 1000 nM; read-out: Percent Control
T28 construct: RSK2(Kin.Dom.2-C-terminal); purchased Eurofins DiscoverX KINOMEscan
T28 sequence (P51812 398-740 limits assumed): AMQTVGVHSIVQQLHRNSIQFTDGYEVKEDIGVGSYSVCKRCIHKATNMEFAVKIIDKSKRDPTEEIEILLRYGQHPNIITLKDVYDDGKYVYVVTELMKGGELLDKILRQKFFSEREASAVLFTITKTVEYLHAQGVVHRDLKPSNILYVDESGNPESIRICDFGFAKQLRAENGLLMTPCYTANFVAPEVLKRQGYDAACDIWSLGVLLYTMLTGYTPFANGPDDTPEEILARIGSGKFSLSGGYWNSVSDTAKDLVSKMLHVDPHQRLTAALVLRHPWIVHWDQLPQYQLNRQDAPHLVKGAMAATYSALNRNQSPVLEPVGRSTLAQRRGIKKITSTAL
From the text: as §2

YANK3 = target: T29, YANK3 (Homo sapiens, UniProt Q86UX6); assay: DiscoverX KINOMEscan binding assay at 1 μM, YANK3; details: YANK3 (STK32C); Compound Concentration 1000 nM; read-out: Percent Control
T29 construct: purchased Eurofins DiscoverX KINOMEscan
From the text: as §2

YSK1 = target: T30, YSK1 (Homo sapiens, UniProt O00506); assay: DiscoverX KINOMEscan binding assay at 1 μM, YSK1; details: YSK1 (STK25); Compound Concentration 1000 nM; read-out: Percent Control
T30 construct: purchased Eurofins DiscoverX KINOMEscan
T30 sequence (O00506 whole entry): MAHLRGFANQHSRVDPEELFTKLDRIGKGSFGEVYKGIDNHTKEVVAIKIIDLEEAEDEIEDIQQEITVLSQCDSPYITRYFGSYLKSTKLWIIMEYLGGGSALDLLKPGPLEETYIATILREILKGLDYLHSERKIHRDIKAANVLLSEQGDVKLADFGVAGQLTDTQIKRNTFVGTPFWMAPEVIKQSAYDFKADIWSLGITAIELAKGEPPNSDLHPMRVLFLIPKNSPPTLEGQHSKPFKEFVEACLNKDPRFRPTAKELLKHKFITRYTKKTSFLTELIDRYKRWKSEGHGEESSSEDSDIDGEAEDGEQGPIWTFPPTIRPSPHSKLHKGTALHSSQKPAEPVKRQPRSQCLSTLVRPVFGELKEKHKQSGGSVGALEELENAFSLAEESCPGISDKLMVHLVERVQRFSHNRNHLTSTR
From the text: as §2

SMILES: O=C(O)c1ccc(-c2coc3ncc(-c4ccccc4)cc23)cc1Cl [SGC-CAMKK2-1N (UNC-YL-83)]
- remaining binding at 1 µM (TTK): 54%
- remaining binding at 1 µM (CDC2L5): 57%
- remaining binding at 1 µM (PIK3CA(E545A)): 59%
- remaining binding at 1 µM (CAMK1D [1]): 61%
- remaining binding at 1 µM (ABL1-nonphosphorylated): 66%
- remaining binding at 1 µM (MAP3K1): 74%
- remaining binding at 1 µM (MKK7 [2]): 82%
- remaining binding at 1 µM (RIOK1): 91%
- remaining binding at 1 µM (BMPR1A): 93%
- remaining binding at 1 µM (DRAK1): 93%
- remaining binding at 1 µM (AXL): 94%
- remaining binding at 1 µM (AMPK-alpha2): 100%
- remaining binding at 1 µM (EGFR(E746-A750del)): 100%
- remaining binding at 1 µM (FRK): 100%
- remaining binding at 1 µM (GSK3A): 100%

SMILES: Cc1cccc(-c2cnc3occ(-c4ccc(C(=O)O)c(C5CCCC5)c4)c3c2)c1 [SGC-CAMKK2-1 (YL-36)]
- remaining binding at 1 µM (LIMK2): 86%
- remaining binding at 1 µM (EGFR(S752-I759del)): 87%
- remaining binding at 1 µM (FGFR2): 88%
- remaining binding at 1 µM (STK36): 89%
- remaining binding at 1 µM (PKNB(M.tuberculosis)): 90%
- remaining binding at 1 µM (CAMK1D [3]): 94%
- remaining binding at 1 µM (TBK1): 94%
- remaining binding at 1 µM (FGFR3): 95%
- remaining binding at 1 µM (TAOK3): 97%
- remaining binding at 1 µM [4]: 100%
- remaining binding at 1 µM (BMPR1B): 100%
- remaining binding at 1 µM (CIT): 100%
- remaining binding at 1 µM (MKK7 [5]): 100%
- remaining binding at 1 µM (PLK4): 100%
- remaining binding at 1 µM [6]: 100%
- remaining binding at 1 µM (YANK3): 100%
- remaining binding at 1 µM (YSK1): 100%
